According to patent US20230330254A1 (Regeneron Pharmaceuticals, Inc., priority 2022, published 2023):
Where two headings read alike, the source gives them in different places. Where a SMILES comes first, the peptide text is derived from it. [ ]: non-standard residue; d: D form. The star is where a group is joined. Bip(2'-Et,4'-O(CH2)4N3) = CCc1cc(OCCCCN=[N+]=[N-])ccc1-c1ccc(C[C@H](N)C(=O)O)cc1; Malonyl(2,2-Me2,histaminyl) = CC(C)(C(=O)NCCc1cnc[nH]1)C(=O)*; Nva(5-(3,5-Me2Ph)) = Cc1cc(C)cc(CCC[C@H](N)C(=O)O)c1; Ala(1H-tetrazol-5-yl) = N[C@@H](Cc1nnn[nH]1)C(=O)O; αMePhe(2-F) = C[C@](N)(Cc1ccccc1F)C(=O)O

Test: Plasma stability of payloads and linker-payloads, human plasma
Type: in vitro ADME
Conditions: plasma, 2 μM, 37° C.; for half-life at 2 µM: read-out: Human plasma stability assay T½ (converted)
Experimental: The plasma stability of payloads and linker payloads of the disclosure were measured. For the assay, pooled frozen plasma (human, mouse or monkey) was thawed in cold water or a 37° C. water bath prior to experiment. Plasma was centrifuged at 4000 rpm for 5 min if any clots were observed, they were subsequently removed. If required, the pH was adjusted to 7.4±0.1. For the preparation of compounds and positive controls, a 1 mM intermediate solution was prepared by diluting 10 μL of their stock solution with 90 μL DMSO; a 1 mM intermediate solution of the positive control (Propantheline) was prepared by diluting 10 μL of its stock solution with 90 μL ultrapure water. […] 98 μL of plasma was spiked with 2 μL of dosing solution (100 μM) to achieve the final concentration of 2 μM in duplicate. Samples were then incubated at 37° C. in a water bath. […] At each time point, 400 μL of stop solution (200 ng/mL tolbutamide plus 200 ng/mL labetalol in 50% ACN/MeOH) was added to precipitate protein and mixed thoroughly. Sample plates were then centrifuged at 4,000 rpm for 10 min. An aliquot of supernatant (50 μL) was transferred from each well and mixed with 100 μL ultrapure water. The samples were then shaken at 800 rpm for approximately 10 min before submitting for LC-MS/MS analysis.

In the case of `CCc1cc(OCCCCn2cc(COCCOCCOCCOCCOCCOCCOCCOCCN)nn2)ccc1-c1ccc(C[C@H](NC(=O)[C@H](CC(=O)O)NC(=O)[C@H](CO)NC(=O)[C@@H](NC(=O)[C@](C)(Cc2ccccc2F)NC(=O)[C@@H](NC(=O)CNC(=O)[C@H](Cc2nn[nH]n2)NC(=O)C(C)(C)NC(=O)[C@@H](N)Cc2ccc(O)cc2)[C@@H](C)O)[C@@H](C)O)C(=O)N[C@@H](CCCc2cc(C)cc(C)c2)C(N)=O)cc1` [LP29, NH2-PEG8-triazole-P19], the half-life at 2 µM (pH 7.4, tested time C (3 days)) is reported as > 173 h.
For `CCc1cc(OCCCCn2cc(COCCOCCOCCOCCOCCOCCOCCOCCC(=O)N[C@@H](CC(C)C)C(=O)N3CCC[C@@H]3C(=O)N[C@@H](CCC(=O)O)C(=O)N[C@H](C(=O)NCC(=O)NCC(=O)O)[C@@H](C)O)nn2)ccc1-c1ccc(C[C@H](NC(=O)[C@H](CC(=O)O)NC(=O)[C@H](CO)NC(=O)[C@@H](NC(=O)[C@](C)(Cc2ccccc2F)NC(=O)[C@@H](NC(=O)CNC(=O)[C@H](Cc2nn[nH]n2)NC(=O)C(C)(C)C(=O)NCCc2cnc[nH]2)[C@@H](C)O)[C@@H](C)O)C(=O)N[C@@H](CCCc2cc(C)cc(C)c2)C(N)=O)cc1` [LP34, GGT EPL-PEG8-triazole-P8], the half-life (tested time C (3 days), read-out: Human plasma stability assay T½) was > 173 h.
With `CCc1cc(OCCCCN=[N+]=[N-])ccc1-c1ccc(C[C@H](NC(=O)[C@H](CC(=O)O)NC(=O)[C@H](CO)NC(=O)[C@@H](NC(=O)[C@](C)(Cc2ccccc2F)NC(=O)[C@@H](NC(=O)CNC(=O)[C@H](Cc2nn[nH]n2)NC(=O)C(C)(C)C(=O)NCCc2cnc[nH]2)[C@@H](C)O)[C@@H](C)O)C(=O)N[C@@H](CCCc2cc(C)cc(C)c2)C(=O)O)cc1` [P41] ({Malonyl(2,2-Me2,histaminyl)}-[Ala(1H-tetrazol-5-yl)]GT[αMePhe(2-F)]TSD[Bip(2'-Et,4'-O(CH2)4N3)][Nva(5-(3,5-Me2Ph))]-OH) the half-life at 2 µM (pH 7.4, tested time A (1 day per footnote)) was > 57.8 h.
